Assays:
[1] = test system: A549-ACE2 infected with SARS-CoV-2; experiment: SARS-CoV-2 infection rate relative to DMSO; higher = more infection; settings: 24 h
[2] = test system: A549-ACE2 infected with SARS-CoV-2; experiment: cell count relative to DMSO; higher = less toxic; settings: 24 h
Calu-3 [3] = experiment: cell viability relative to DMSO; higher = less toxic; settings: 72 h
Vero E6 [4] = experiment: as above; settings: 72 h
HepG2 [5] = experiment: as above; settings: 72 h
Caco-2 [6] = experiment: as above; settings: 72 h
U2OS [7] = experiment: as above; settings: 72 h
Calu-3 [8] = experiment: relative viability EC50 (midpoint between 100% and the lowest measured viability); higher = less toxic; settings: 72 h
Vero E6 [9] = experiment: as above; settings: 72 h
HepG2 [10] = experiment: as above; settings: 72 h
Caco-2 [11] = experiment: as above; settings: 72 h
[12] = test system: A549-ACE2 infected with SARS-CoV-2; experiment: morphology score (similarity to uninfected cells); higher = more like uninfected cells; settings: 24 h
Calu-3 [13] = experiment: drug sensitivity score (DSS) for viability; higher = more toxic; extreme values may be limits of the assay; settings: 72 h
Vero E6 [14] = experiment: as above; settings: 72 h
HepG2 [15] = experiment: as above; settings: 72 h
Caco-2 [16] = experiment: as above; settings: 72 h
U2OS [17] = experiment: as above; settings: 72 h
A549-ACE2 = experiment: drug-induced phospholipidosis relative to tamoxifen; higher = more phospholipidosis
U2OS [18] = experiment: relative viability EC50 (midpoint between 100% and the lowest measured viability); higher = less toxic; settings: 72 h

CN(C)c1ccc(-c2nc3c(N4CCN(CC(=O)Nc5nccs5)CC4)c(Cl)cnc3[nH]2)cc1
Settings | SARS-CoV-2 infection rate, [1] [%] | cell count, [2] [%] | cell viability, Caco-2 [6] [%] | cell viability, Calu-3 [3] [%] | cell viability, HepG2 [5] [%] | cell viability, U2OS [7] [%] | cell viability, Vero E6 [4] [%] | morphology score, [12]
1 nM | – | – | 99.6 | 102 | 105 | 97.1 | 94.5 | –
10 nM | – | – | 103 | 95.7 | 105 | 90.9 | 97.6 | –
100 nM | – | – | 96.4 | 91.3 | 92 | 98 | 88.7 | –
0.3 µM | 94 | 101 | – | – | – | – | – | 0.26
1000 nM | – | – | 94.7 | 109 | 99.9 | 89.3 | 95.8 | –
3 µM | 101 | 97 | – | – | – | – | – | -0.1
10 µM | 96 | 97 | – | – | – | – | – | 0.16
10000 nM | – | – | 98.7 | 91.5 | 98.2 | 67.4 | 100 | –
30 µM | 65 | 83 | – | – | – | – | – | 0.47

Settings | drug sensitivity score | relative viability EC50 [µM]
Caco-2 [11] | – | > 10
Caco-2 [16] | 0 | –
Calu-3 [8] | – | > 10
Calu-3 [13] | 0 | –
HepG2 [10] | – | > 10
HepG2 [15] | 0 | –
U2OS [17] | 2.8 | –
Vero E6 [9] | – | > 10
Vero E6 [14] | 0 | –

drug-induced phospholipidosis [%], A549-ACE2
Settings | 0.3 µM | 0.833333 µM | 3.33333 µM | 6.66667 µM | 10 µM | 30 µM
24 h | 4.66 | -0.19 | 5.5 | 0.89 | 5.75 | 7.19
48 h | 6.88 | 1.34 | 2.05 | 1.71 | 1.43 | 6.09
72 h | 3.52 | -6.12 | -1.19 | 0.0519 | -2.06 | 6.76

NC(=O)c1noc([C@H](CCCC2CCCCC2)CC(=O)NO)n1
Settings | SARS-CoV-2 infection rate, [1] [%] | cell count, [2] [%] | cell viability, Caco-2 [6] [%] | cell viability, Calu-3 [3] [%] | cell viability, HepG2 [5] [%] | cell viability, U2OS [7] [%] | cell viability, Vero E6 [4] [%] | morphology score, [12]
1 nM | – | – | 97.2 | 106 | 102 | 96.4 | 95.2 | –
10 nM | – | – | 93 | 102 | 108 | 101 | 90.9 | –
100 nM | – | – | 96.9 | 93.8 | 109 | 101 | 93.1 | –
0.3 µM | 102 | 102 | – | – | – | – | – | -0.06
1000 nM | – | – | 88 | 110 | 89.6 | 97.4 | 91.4 | –
3 µM | 98 | 100 | – | – | – | – | – | 0
10 µM | 89 | 102 | – | – | – | – | – | 0.38
10000 nM | – | – | 79.6 | 98.7 | 74.8 | 86.7 | 97 | –
30 µM | 95 | 101 | – | – | – | – | – | 0.25

Settings | drug sensitivity score | relative viability EC50 [µM]
Caco-2 [11] | – | > 10
Caco-2 [16] | 1.2 | –
Calu-3 [8] | – | > 10
Calu-3 [13] | 0 | –
HepG2 [15] | 2.2 | –
U2OS [17] | 0.3 | –
U2OS [18] | – | > 10
Vero E6 [9] | – | > 10
Vero E6 [14] | 0 | –

drug-induced phospholipidosis [%], A549-ACE2
Settings | 0.3 µM | 0.833333 µM | 3.33333 µM | 6.66667 µM | 10 µM | 30 µM
24 h | 4.23 | 6.27 | 14.7 | 16.7 | 18.4 | 23.6
48 h | 4.52 | 5.1 | 16.8 | 23.1 | 24.9 | 32.6
72 h | 5.18 | 1.64 | 8.76 | 19.5 | 21 | –

OC1=c2ccccc2=C(NC2CCCCC2)/C1=C\c1ccccc1
Settings | SARS-CoV-2 infection rate, [1] [%] | cell count, [2] [%] | cell viability, Caco-2 [6] [%] | cell viability, Calu-3 [3] [%] | cell viability, HepG2 [5] [%] | cell viability, U2OS [7] [%] | cell viability, Vero E6 [4] [%] | morphology score, [12]
1 nM | – | – | 107 | 89.1 | 95.6 | 98.9 | 93.6 | –
10 nM | – | – | 92 | 82.2 | 104 | 99.4 | 95.2 | –
0.1 µM | 96 | 99 | – | – | – | – | – | -0.03
100 nM | – | – | 96 | 90.1 | 101 | 108 | 96.9 | –
0.3 µM | 99 | 101 | – | – | – | – | – | 0.22
1 µM | 103 | 99 | – | – | – | – | – | -0.06
1000 nM | – | – | 88.3 | 99.5 | 93 | 83 | 91.7 | –
3 µM | 93 | 73 | – | – | – | – | – | 0.11
10000 nM | – | – | 32.8 | 35.8 | 1.2 | 0.1 | 10.5 | –

Settings | drug sensitivity score | relative viability EC50 [µM]
Caco-2 [11] | – | 1.86
Caco-2 [16] | 5.6 | –
Calu-3 [8] | – | 3.1
Calu-3 [13] | 3.6 | –
HepG2 [10] | – | 2.59
HepG2 [15] | 6.5 | –
U2OS [17] | 8.3 | –
U2OS [18] | – | 1.88
Vero E6 [9] | – | 2.4
Vero E6 [14] | 6.3 | –

drug-induced phospholipidosis [%], A549-ACE2
Settings | 0.3 µM | 0.833333 µM | 3.33333 µM | 30 µM
24 h | 2.77 | -0.77 | 1.63 | 12.9
48 h | 0.98 | -0.44 | 6.41 | –
72 h | 1.89 | -2.33 | 6.19 | –

COc1ccc2nc3c(c(N)c2c1)CCCC3 [7-methoxytacrine]
Settings | SARS-CoV-2 infection rate, [1] [%] | cell count, [2] [%] | cell viability, Caco-2 [6] [%] | cell viability, Calu-3 [3] [%] | cell viability, HepG2 [5] [%] | cell viability, U2OS [7] [%] | cell viability, Vero E6 [4] [%] | morphology score, [12]
1 nM | – | – | 96 | 93 | 100 | 103 | 102 | –
10 nM | – | – | 98.2 | 102 | 91.4 | 102 | 99.8 | –
100 nM | – | – | 96.2 | 91.1 | 92.5 | 98.5 | 95.6 | –
0.3 µM | 102 | 103 | – | – | – | – | – | -0.02
1000 nM | – | – | 93.8 | 97.7 | 79.3 | 100 | 95.4 | –
3 µM | 81 | 109 | – | – | – | – | – | 0.53
10 µM | 34 | 115 | – | – | – | – | – | 0.82
10000 nM | – | – | 92.2 | 95.5 | 83.5 | 95.3 | 98.9 | –
30 µM | 17 | 111 | – | – | – | – | – | 0.76

Settings | drug sensitivity score | relative viability EC50 [µM]
Caco-2 [11] | – | > 10
Caco-2 [16] | 0 | –
Calu-3 [8] | – | > 10
Calu-3 [13] | 0 | –
HepG2 [10] | – | > 10
HepG2 [15] | 2.6 | –
U2OS [17] | 0 | –
U2OS [18] | – | > 10
Vero E6 [9] | – | > 10
Vero E6 [14] | 0 | –

drug-induced phospholipidosis [%], A549-ACE2
Settings | 0.3 µM | 0.833333 µM | 3.33333 µM | 6.66667 µM | 10 µM | 30 µM
24 h | 0.14 | -0.76 | 0.16 | 7.44 | 14.2 | 83.8
48 h | 2.14 | -1.42 | 1.92 | 4.91 | 9.37 | 110
72 h | 5.21 | -1.72 | 1.16 | 5.48 | 11.9 | 129
